Drawing on ChEMBL document CHEMBL1806418, “Azepanone-based inhibitors of human cathepsin S: optimization of selectivity via the P2 substituent” (Bioorg Med Chem Lett, 2011), this text covers IC50 and Ki for 20 compounds.

As a reminder, the IC50 is the point on the concentration scale where inhibition reaches its midpoint.

In test [1] the target is T1, Cathepsin S (Homo sapiens, UniProt P25774). The test is described as follows: Inhibition of human recombinant cathepsin S using Ac-KQLR-AMC as substrate by fluorescence assay.
T1 sequence (P25774 whole entry): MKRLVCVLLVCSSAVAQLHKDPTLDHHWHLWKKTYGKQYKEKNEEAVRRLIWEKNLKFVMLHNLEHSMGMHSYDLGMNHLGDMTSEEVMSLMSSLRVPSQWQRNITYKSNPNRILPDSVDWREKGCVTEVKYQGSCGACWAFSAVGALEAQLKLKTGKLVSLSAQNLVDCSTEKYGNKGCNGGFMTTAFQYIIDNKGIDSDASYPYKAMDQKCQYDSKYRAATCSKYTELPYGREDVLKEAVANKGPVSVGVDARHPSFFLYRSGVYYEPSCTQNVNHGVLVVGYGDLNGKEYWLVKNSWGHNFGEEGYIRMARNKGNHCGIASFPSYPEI
The target in test [2] is T2, Procathepsin L (Homo sapiens, UniProt P07711). In words: Inhibition of human recombinant cathepsin L using Z-LR-AMC as substrate by fluorescence assay.
T2 sequence (P07711 whole entry): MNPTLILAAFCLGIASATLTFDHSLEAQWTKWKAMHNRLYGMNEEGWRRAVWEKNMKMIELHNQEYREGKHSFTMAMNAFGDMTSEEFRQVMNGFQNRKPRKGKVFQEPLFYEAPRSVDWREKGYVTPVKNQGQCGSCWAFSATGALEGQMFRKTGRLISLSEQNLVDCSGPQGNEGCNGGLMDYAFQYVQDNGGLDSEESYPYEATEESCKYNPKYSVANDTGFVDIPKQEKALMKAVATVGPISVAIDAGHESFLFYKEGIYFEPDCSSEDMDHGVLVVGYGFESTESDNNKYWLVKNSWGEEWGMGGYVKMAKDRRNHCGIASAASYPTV
Test [3] has as its target T1, Cathepsin S. In words: Inhibition of cathepsin S in human Raji cells assessed as decrease in cell surface expression of MHC class 2/CLIP by flow cytometric analysis. Format: cell-based.
Test [4] has as its target T3, Cathepsin K (Homo sapiens, UniProt P43235).
T3 sequence (P43235 whole entry): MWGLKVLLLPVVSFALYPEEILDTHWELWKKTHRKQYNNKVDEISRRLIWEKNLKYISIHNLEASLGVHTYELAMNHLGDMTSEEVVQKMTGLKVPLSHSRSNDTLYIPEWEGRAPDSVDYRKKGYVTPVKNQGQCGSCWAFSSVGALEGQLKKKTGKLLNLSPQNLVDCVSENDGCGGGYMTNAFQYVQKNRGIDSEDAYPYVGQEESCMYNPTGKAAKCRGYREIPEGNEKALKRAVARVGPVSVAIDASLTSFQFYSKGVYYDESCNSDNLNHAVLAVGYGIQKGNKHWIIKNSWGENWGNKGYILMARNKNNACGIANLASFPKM
The test is described as follows: Inhibition of human recombinant cathepsin K using z-LR-AFC as substrate by fluorescence assay.

The target of test [5] is T3, Cathepsin K. The test is described as follows: Inhibition of human cathepsin K using Z-Lys-Gln-Lys-Leu-Arg-AMC as substrate after 1 hr by fluorescence assay. Conditions: read-out: Ki(app).
Test [6] addresses T1, Cathepsin S. In words: Inhibition of human cathepsin S using Z-Lys-Gln-Lys-Leu-Arg-AMC as substrate after 1 hr by fluorescence assay. Conditions: read-out: Ki(app).
Test [7] deals with T2, Procathepsin L. In words: Inhibition of human cathepsin L using Z-Phe-Arg-AMC as substrate after 1 hr by fluorescence assay. Conditions: read-out: Ki(app).

Each structure is given as a SMILES string.

Turning to `C[C@@H]1CC[C@H](NC(=O)[C@H](CC(C)(C)C)NC(=O)c2ccco2)C(=O)CN1S(=O)(=O)c1ccccn1`, the IC50 was 1.3 nM in test [1], 11.5 nM in test [2], 4800 nM in test [3] and 4.7 nM in test [4].
`C[C@@H]1CC[C@H](NC(=O)[C@H](CC2CCCCC2)NC(=O)c2ccco2)C(=O)CN1S(=O)(=O)c1ccccn1`: the IC50 was determined as 0.5 nM in test [1], 1.2 nM in test [2], 1780 nM in test [3] and 40.5 nM in test [4].
As for `C[C@@H]1CC[C@H](NC(=O)[C@H](CC2CCCCCC2)NC(=O)c2ccco2)C(=O)CN1S(=O)(=O)c1ccccn1`, the IC50 in test [1] is < 0.4 nM; in test [2], < 0.4 nM; in test [4] it was 28.2 nM.
In the case of `C[C@@H]1CC[C@H](NC(=O)[C@H](CC2CCCC2)NC(=O)c2ccco2)C(=O)CN1S(=O)(=O)c1ccccn1`, the IC50 is 0.76 nM in test [1], 4.8 nM in test [2] and 27.7 nM in test [4].
In the same order, the values of `C[C@@H]1CC[C@H](NC(=O)[C@@H](CC2(C)CCCC2)NC(=O)c2ccco2)C(=O)CN1S(=O)(=O)c1ccccn1` are 101 nM, 4400 nM and 1900 nM.
As to `C[C@@H]1CC[C@H](NC(=O)[C@H](CC2(C)CCCCC2)NC(=O)c2ccco2)C(=O)CN1S(=O)(=O)c1ccccn1`, the IC50 is < 0.4 nM in test [1], 31.9 nM in test [2], 1400 nM in test [3] and 44.5 nM in test [4].
Consider `CC(C)C[C@H](NC(=O)c1ccco1)C(=O)N[C@H]1CC[C@@H](C)N(S(=O)(=O)c2ccccn2)CC1=O`, for which the values for the IC50 in test [1], in test [2] and in test [4] were 2.9 nM, 0.53 nM and 1 nM, respectively.
Consider `C[C@@H]1CC[C@H](NC(=O)[C@H](CC2(C)CCCCC2)NC(=O)c2ccco2)C(=O)CN1C(=O)c1ccccn1`, for which the IC50 turned out to be 1.5 nM in test [1], 429 nM in test [2], 3880 nM in test [3] and 263 nM in test [4].
In the case of `CC1CCC(C[C@H](NC(=O)c2ccco2)C(=O)N[C@H]2CC[C@@H](C)N(S(=O)(=O)c3ccccn3)CC2=O)CC1` (stereo not given in full), the IC50 is 0.5 nM in test [1], 1 nM in test [2] and 450 nM in test [4].
Consider `CC(C)C[C@H](NC(=O)c1ccco1)C(=O)N[C@H]1CC[C@@H](C)N(C(=O)c2ccccn2)CC1=O`, for which the IC50 was 31.6 nM in test [1], 10 nM in test [2] and 10 nM in test [4].
Take `C[C@@H]1CC[C@H](NC(=O)[C@H](CC2CCC(C)(C)CC2)NC(=O)c2ccco2)C(=O)CN1S(=O)(=O)c1ccccn1`: the IC50 was 1.2 nM in test [1], 58.5 nM in test [2] and 6200 nM in test [4].
As to `O=C(N[C@@H](Cc1ccc2ccccc2c1)C(=O)N[C@H]1CCCN(S(=O)(=O)c2ccccn2)CC1=O)c1cccc2ccccc12`, the Ki in test [5] is > 10000 nM.
Regarding `CC(C)C[C@H](NC(=O)c1cc2cc(OCCN3CCOCC3)ccc2o1)C(=O)N[C@H]1CCCN(C(=O)Cc2cccc(-c3ccccn3)c2)CC1=O`, the IC50 came to 8.3 nM in test [1] and 940 nM in test [3]. The values for the Ki in test [5], in test [6] and in test [7] were 0.1 nM, 8.3 nM and 1.2 nM, respectively.
With `C[C@@H]1CC[C@H](NC(=O)[C@H](CC23CCC(CC2)C3(C)C)NC(=O)N2CCOCC2)C(=O)CN1S(=O)(=O)c1ccccn1`, the IC50 was determined as 1.5 nM in test [1], 139 nM in test [2] and 174 nM in test [4].
For `C[C@@H]1CC[C@H](NC(=O)[C@H](CCC2CCCC2)NC(=O)N2CCOCC2)C(=O)CN1S(=O)(=O)c1ccccn1` the same measures were 0.58 nM, 10.8 nM and 1100 nM.
Consider `C[C@@H]1CC[C@H](NC(=O)[C@H](CCC2CCCC2)NC(=O)c2ccco2)C(=O)CN1S(=O)(=O)c1ccccn1`, for which the values for the IC50 in test [1], in test [2] and in test [4] were 1.9 nM, 10.7 nM and 840 nM, respectively.
`C[C@@H]1CC[C@H](NC(=O)[C@H](CC2(C)CCCCC2)NC(=O)N2CCOCC2)C(=O)CN1S(=O)(=O)c1ccccn1`: the IC50 is < 0.4 nM in test [1], 48.7 nM in test [2], 570 nM in test [3] and 136 nM in test [4].
Take `C[C@@H]1CC[C@H](NC(=O)[C@H](CC2(C)CCCC2)NC(=O)c2ccco2)C(=O)CN1S(=O)(=O)c1ccccn1`: the IC50 is < 0.4 nM in test [1], 22.4 nM in test [2] and 11.2 nM in test [4].
In the same order, the values of `C[C@@H]1CC[C@H](NC(=O)[C@@H](CC2(C)CCCCC2)NC(=O)c2ccco2)C(=O)CN1S(=O)(=O)c1ccccn1` are 37 nM, 1700 nM and 2300 nM.
In the same order, the values of `C[C@@H]1CC[C@H](NC(=O)[C@H](CC2=CCCC2)NC(=O)c2ccco2)C(=O)CN1S(=O)(=O)c1ccccn1` are 4.9 nM, 3.8 nM and 9 nM.
